Measured values reported in ChEMBL document CHEMBL1127540, “Three-dimensional pharmacophores from binding data” (J Med Chem, 1994).

Target: Human immunodeficiency virus type 1 protease (Human immunodeficiency virus 1, UniProt Q72874)
Test: Binding affinity to HIV-1 protease

Row | Ki | Structure (SMILES)
1 | 8.71 nM | CC[C@H](C)[C@H](NC(=O)[C@@H](C[C@H](O)[C@H](CC(C)C)NC(=O)[C@H](Cc1c[nH]cn1)NC(=O)[C@H](Cc1ccccc1)NC(=O)[C@H]1CCCN1C(=O)[C@H](Cc1c[nH]cn1)NC(=O)OC(C)(C)C)C(C)C)C(=O)N[C@@H](Cc1c[nH]cn1)C(=O)O
2 | 0.339 nM | CC(C)(C)OC(=O)N[C@@H](Cc1ccccc1)[C@@H](O)CC(Cc1ccc(OCC(=O)O)cc1)C(=O)N[C@@H]1c2ccccc2C[C@H]1O (some centres not stated)
3 | 2.09 nM | NC(=O)C[C@H](NC(=O)OCc1ccccc1)C(=O)N[C@@H](Cc1ccccc1)C(=O)C(F)(F)CCc1ccccc1
4 | 501 nM | CC[C@H](C)[C@H](NC(=O)[C@H](C(C)C)[C@H](O)[C@H](O)[C@H](CC(C)C)NC(=O)[C@H](Cc1c[nH]cn1)NC(=O)[C@H](Cc1ccccc1)NC(=O)OC(C)(C)C)C(=O)NCc1ccccn1
5 | 3.72 nM | CC(C)[C@H](NC(=O)OCc1ccccc1)C(=O)N[C@@H](Cc1ccccc1)[C@@H](O)[C@@H](CC(=O)[C@H](NC(=O)OCc1ccccc1)C(C)C)Cc1ccccc1
6 | 0.219 nM | CC(C)[C@H](NC(=O)OCc1ccccc1)C(=O)N[C@@H](Cc1ccccc1)[C@@H](O)[C@H](O)[C@H](Cc1ccccc1)NC(=O)OCc1ccccc1
7 | 63.1 nM | CC(C)(C)OC(=O)N[C@@H](Cc1ccccc1)[C@@H](O)CC(=O)N[C@@H](CCC(=O)O)C(=O)N[C@@H](Cc1ccccc1)C(=O)O
8 | 363 nM | CCC(C)CNC(=O)[C@H](C(C)C)[C@@H](O)[C@H](O)[C@H](CC(C)C)NC(=O)[C@H](Cc1c[nH]cn1)NC(=O)[C@H](Cc1ccccc1)NC(=O)OC(C)(C)C (some centres not stated)
9 | 0.38 nM | CC(C)[C@H](NC(=O)OCc1ccccc1)C(=O)N[C@@H](Cc1ccccc1)[C@H](O)[C@@H](O)[C@H](Cc1ccccc1)NC(=O)[C@@H](NC(=O)OCc1ccccc1)C(C)C
10 | 3980 nM | CC(C)(C)OC(=O)N[C@@H](Cc1ccccc1)[C@H](O)CC(=O)N[C@@H](CCC(=O)O)C(=O)N[C@@H](Cc1ccccc1)C(=O)O
11 | 0.603 nM | CC[C@H](C)[C@H](NC(=O)[C@H](Cc1ccccc1)NC(=O)C[C@H](O)[C@H](Cc1ccccc1)NC(=O)OC(C)(C)C)C(=O)N[C@@H](Cc1ccccc1)C(=O)OC
12 | 5.01 nM | CC[C@H](C)[C@H](NC(=O)[C@H](C(C)C)[C@@H](O)[C@H](O)[C@H](CC(C)C)NC(=O)OCc1ccccc1)C(=O)NCc1ccccn1
13 | 0.219 nM | CC(C)[C@H](NC(=O)OCc1ccccc1)C(=O)N[C@@H](Cc1ccccc1)[C@H](O)[C@H](O)[C@H](Cc1ccccc1)NC(=O)[C@@H](NC(=O)OCc1ccccc1)C(C)C
14 | 4.9 nM | CC[C@H](C)[C@H](NC(=O)OCc1ccccc1)C(=O)N[C@@H](Cc1ccccc1)[C@@H](O)[C@@H](CC(=O)[C@H](NC(=O)OCc1ccccc1)[C@@H](C)CC)Cc1ccccc1
15 | 120 nM | COC(=O)[C@@H](NC(=O)[C@@H](NC(=O)CC[C@H](O)[C@H](Cc1ccccc1)NC(=O)[C@H](C)NC(=O)OCc1ccccc1)C(C)C)C(C)C
16 | 3020 nM | CC(C)(C)OC(=O)N[C@H](Cc1ccccc1)[C@H](O)CC(=O)N[C@@H](CCC(=O)O)C(=O)N[C@@H](Cc1ccccc1)C(=O)O
17 | 363 nM | CCC(C)CNC(=O)[C@H](C(C)C)[C@@H](O)[C@H](O)[C@H](CC(C)C)NC(=O)OCc1ccccc1 (some centres not stated)
18 | 10 nM | CC(=O)N[C@H](C(=O)N[C@H](C(=O)C[C@@H](Cc1ccccc1)[C@H](O)[C@H](Cc1ccccc1)NC(=O)[C@@H](NC(=O)[C@@H](NC(C)=O)C(C)C)C(C)C)C(C)C)C(C)C
19 | 3550 nM | CC[C@H](C)[C@H](NC(=O)[C@@H]1CCCN1C[C@@H](CC(=O)[C@H](CC(N)=O)NC(=O)[C@H](CCC(N)=O)NC(=O)[C@H](CO)NC(=O)[C@@H](N)C(C)C)Cc1ccccc1)C(=O)N[C@H](C(=O)O)C(C)C
20 | 2.88 nM | CC(C)[C@H](NC(=O)NCc1ccccn1)C(=O)N[C@@H](Cc1ccccc1)C(=O)C(F)(F)CCc1ccccc1
21 | 1 nM | CC(C)[C@H](NC(=O)CNC(=O)OCc1ccccc1)C(=O)N[C@@H](Cc1ccccc1)C(=O)C(F)(F)CCc1ccccc1
22 | 70.8 nM | CC[C@H](C)[C@H](NC(=O)[C@@H](C[C@H](O)C(CC1CCCCC1)NC(=O)[C@@H](N)C(C)C)C(C)C)C(=O)NCc1ccccn1 (some centres not stated)
